Data as given in PubChem BioAssay (NCI).
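All cell lines were grown in 96-well plates and treated with compound for 48 hours. TGI denotes the concentration required for complete inhibition of growth.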

Columns and labels:
Assay in all cases: NCI tumour cell line growth inhibition, 48 h
786-0 renal = tested on: 786-0 renal
A498 renal = tested on: A498 renal
CAKI-1 renal = tested on: CAKI-1 renal
COLO 205 colon = tested on: COLO 205 colon
HCT-15 colon = tested on: HCT-15 colon
HL-60(TB) leukemia = tested on: HL-60(TB) leukemia
HOP-62 NSCLC = tested on: HOP-62 NSCLC
HS 578T breast = tested on: HS 578T breast
LOX IMVI melanoma = tested on: LOX IMVI melanoma
MOLT-4 leukemia = tested on: MOLT-4 leukemia
NCI-H226 lung = tested on: NCI-H226 lung
NCI-H522 lung = tested on: NCI-H522 lung
OVCAR-3 ovarian = tested on: OVCAR-3 ovarian
SF-295 CNS = tested on: SF-295 CNS
SK-MEL-2 melanoma = tested on: SK-MEL-2 melanoma
SK-MEL-5 melanoma = tested on: SK-MEL-5 melanoma
UACC-257 melanoma = tested on: UACC-257 melanoma
UACC-62 melanoma = tested on: UACC-62 melanoma
UO-31 renal = tested on: UO-31 renal

Measured: TGI

C[C@@]12C[C@@H](c3ccccc3O1)N1CCCSC1=N2
> 100 µM: all assays above
